# ChEMBL document CHEMBL1201862, “PubChem BioAssay data set” (2004)
#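 Test compounds were applied to cells in 96-well plates for 48 hours at 5 doses. GI50 = concentration required for 50% inhibition of growth.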 Calls of active or inactive are those of the source. Rule as the data show it: active = GI50 up to about 1.1 µM and inactive = higher.
# Legend:
# Experiment in all cases: NCI-60 cell line screen, 48 h
# CCRF-CEM = test system: CCRF-CEM
# U-251 = test system: U-251
# 786-0 = test system: 786-0
# DU-145 = test system: DU-145
# OVCAR-5 = test system: OVCAR-5
# SR = test system: SR
# SF-268 = test system: SF-268
# HCT-15 = test system: HCT-15
# EKVX = test system: EKVX
# OVCAR-8 = test system: OVCAR-8
# ACHN = test system: ACHN
# OVCAR-3 = test system: OVCAR-3
# NCI-H460 = test system: NCI-H460
# UO-31 = test system: UO-31
# HCT-116 = test system: HCT-116
# SNB-75 = test system: SNB-75
# SK-MEL-2 = test system: SK-MEL-2
# KM12 = test system: KM12
# NCI-H226 = test system: NCI-H226
# IGROV-1 = test system: IGROV-1
SMILES,GI50 (CCRF-CEM),GI50 (U-251),GI50 (786-0),GI50 (DU-145),GI50 (OVCAR-5),GI50 (SR),GI50 (SF-268),GI50 (HCT-15),GI50 (EKVX),GI50 (OVCAR-8),GI50 (ACHN),GI50 (OVCAR-3),GI50 (NCI-H460),GI50 (UO-31),GI50 (HCT-116),GI50 (SNB-75),GI50 (SK-MEL-2),GI50 (KM12),GI50 (NCI-H226),GI50 (IGROV-1)
CCN1CCN=c2c3cc(OC)ccc3n3cnc4ccc1c2c43,0.102 µM (active),0.192 µM (active),0.0759 µM (active),0.483 µM (active),0.316 µM (active),0.0283 µM (active),0.427 µM (active),0.177 µM,0.231 µM (active),0.0863 µM (active),0.131 µM (active),0.226 µM (active),0.0948 µM (active),0.147 µM (active),0.0565 µM (active),0.456 µM (active),0.238 µM (active),0.395 µM (active),0.323 µM (active),2.02 µM (inactive)
C1OCN2c3nonc3N3COCN4c5nonc5N1C2C43 (stereo not given),77.8 µM (inactive),> 100 µM (inactive),> 100 µM (inactive),> 100 µM (inactive),> 100 µM (inactive),> 100 µM (inactive),> 100 µM (inactive),65.9 µM,> 100 µM (inactive),> 100 µM (inactive),> 100 µM (inactive),> 100 µM (inactive),> 100 µM (inactive),> 100 µM (inactive),57.4 µM (inactive),> 100 µM (inactive),> 100 µM (inactive),49.2 µM (inactive),> 100 µM (inactive),> 100 µM (inactive)
CCOC(=O)N1CCN(Cc2cc(=O)n3ccc(C)cc3n2)CC1,> 100 µM (inactive),> 100 µM (inactive),> 100 µM (inactive),> 100 µM (inactive),> 100 µM (inactive),> 100 µM (inactive),> 100 µM (inactive),> 100 µM,> 100 µM (inactive),> 100 µM (inactive),> 100 µM (inactive),> 100 µM (inactive),> 100 µM (inactive),> 100 µM (inactive),> 100 µM (inactive),> 100 µM (inactive),> 100 µM (inactive),> 100 µM (inactive),> 100 µM (inactive),> 100 µM (inactive)
COc1ccc(/C=C/NC=O)cc1,> 100 µM (inactive),> 100 µM (inactive),> 100 µM (inactive),> 100 µM (inactive),> 100 µM (inactive),> 100 µM (inactive),> 100 µM (inactive),> 100 µM,> 100 µM (inactive),> 100 µM (inactive),> 100 µM (inactive),> 100 µM (inactive),> 100 µM (inactive),> 100 µM (inactive),> 100 µM (inactive),18.1 µM (inactive),> 100 µM (inactive),> 100 µM (inactive),> 100 µM (inactive),> 100 µM (inactive)
Cc1cn(C2CC(N)C(C(=O)O)O2)c(=O)[nH]c1=O (stereo not given),> 100 µM (inactive),> 100 µM (inactive),> 100 µM (inactive),> 100 µM (inactive),> 100 µM (inactive),> 100 µM (inactive),> 100 µM (inactive),> 100 µM,> 100 µM (inactive),> 100 µM (inactive),> 100 µM (inactive),> 100 µM (inactive),> 100 µM (inactive),> 100 µM (inactive),> 100 µM (inactive),> 100 µM (inactive),> 100 µM (inactive),> 100 µM (inactive),> 100 µM (inactive),> 100 µM (inactive)
CSc1nc(=O)c(C#N)c(-c2ccccc2)n1C1OC(COC(C)=O)C(OC(C)=O)C(OC(C)=O)C1OC(C)=O (stereo not given),99.8 µM (inactive),> 100 µM (inactive),82.6 µM (inactive),> 100 µM (inactive),> 100 µM (inactive),> 100 µM (inactive),> 100 µM (inactive),> 100 µM,> 100 µM (inactive),60.5 µM (inactive),> 100 µM (inactive),78.3 µM (inactive),31.3 µM (inactive),39.2 µM (inactive),79.4 µM (inactive),42.5 µM (inactive),> 100 µM (inactive),> 100 µM (inactive),> 100 µM (inactive),> 100 µM (inactive)
CCN(CC)CCOc1ccc(/C=C(\C#N)c2ccc(OCCN(CC)CC)cc2)cc1,3.44 µM (inactive),13.5 µM (inactive),11.3 µM (inactive),65.6 µM (inactive),11.6 µM (inactive),7.89 µM (inactive),19.1 µM (inactive),14.5 µM,> 51.2 µM (inactive),20.5 µM (inactive),27.3 µM (inactive),22.4 µM (inactive),18.1 µM (inactive),14.7 µM (inactive),5.87 µM (inactive),16 µM (inactive),21.4 µM (inactive),10.7 µM (inactive),39.4 µM (inactive),22.7 µM (inactive)
Cc1ccc(/C=C2\CCCC(CN3CCCCC3)C2=O)cc1 (stereo not given),0.757 µM (active),14.3 µM (inactive),2.02 µM (inactive),11.7 µM (inactive),15 µM (inactive),0.767 µM (active),2.09 µM (inactive),2.14 µM,17.6 µM (inactive),2.64 µM (inactive),3.98 µM (inactive),1.87 µM (inactive),3.89 µM (inactive),1.84 µM (inactive),1.76 µM (inactive),4.66 µM (inactive),2.89 µM (inactive),1.27 µM (inactive),2.29 µM (inactive),1.96 µM (inactive)
CCOC(=O)CSc1nc(N)c2c(-c3ccccc3)c3c(nc2n1)CCCC3,> 100 µM (inactive),> 100 µM (inactive),> 100 µM (inactive),> 100 µM (inactive),> 100 µM (inactive),> 100 µM (inactive),> 100 µM (inactive),> 100 µM,> 100 µM (inactive),> 100 µM (inactive),> 100 µM (inactive),> 100 µM (inactive),> 100 µM (inactive),25.1 µM (inactive),> 100 µM (inactive),98.6 µM (inactive),> 100 µM (inactive),> 100 µM (inactive),> 100 µM (inactive),> 100 µM (inactive)
O=C1N[C@@H]([C@H]2CC[C@H](Cl)CN2)C(=O)N[C@H]1[C@H]1CC[C@H](Cl)CN1,0.152 µM (active),0.406 µM (active),0.1 µM (active),0.108 µM (active),1.25 µM (inactive),0.1 µM (active),0.466 µM (active),1.14 µM,3.32 µM (inactive),0.853 µM (active),0.1 µM (active),1.8 µM (inactive),0.116 µM (active),1.04 µM (active),0.743 µM (active),0.507 µM (active),2.56 µM (inactive),3.3 µM (inactive),1.04 µM (active),4.34 µM (inactive)
O=C1C=C(OCCCCl)C(=O)c2c(O)ccc(O)c21,0.661 µM (active),2.01 µM (inactive),1.56 µM (inactive),0.303 µM (active),1.43 µM (inactive),0.871 µM (active),1.73 µM (inactive),0.422 µM,1.79 µM (inactive),2.07 µM (inactive),1.59 µM (inactive),0.505 µM (active),1.21 µM (inactive),1.18 µM (inactive),0.459 µM (active),1.4 µM (inactive),1.02 µM (active),1.78 µM (inactive),1.84 µM (inactive),1.8 µM (inactive)
O=[N+]([O-])C1=Cc2c(O)ccc(O)c2C2c3ccccc3NC12 (stereo not given),3.88 µM (inactive),12.9 µM (inactive),12.1 µM (inactive),24.7 µM (inactive),16.1 µM (inactive),13.5 µM (inactive),16.7 µM (inactive),13 µM,14.8 µM (inactive),5.82 µM (inactive),5.83 µM (inactive),5.81 µM (inactive),12.8 µM (inactive),5.33 µM (inactive),9.16 µM (inactive),22.4 µM (inactive),16.9 µM (inactive),9.04 µM (inactive),61.2 µM (inactive),13.5 µM (inactive)
CCN(CC)CCNc1ccc2nnn3c4ccc([N+](=O)[O-])cc4c(=O)c1c23,4.91 µM (inactive),5.21 µM (inactive),4.34 µM (inactive),7.69 µM (inactive),13.2 µM (inactive),5.01 µM (inactive),6.37 µM (inactive),6.93 µM,14.1 µM (inactive),4.76 µM (inactive),3.28 µM (inactive),> 79.6 µM (inactive),3.93 µM (inactive),3.44 µM (inactive),3.55 µM (inactive),4.91 µM (inactive),9.75 µM (inactive),6.28 µM (inactive),3.34 µM (inactive),5.38 µM (inactive)
